One data set concerns Q-less coq3 yeast. The data set can be described thus: Yeast incubated with different ratios of H- and D-PUFA, plate dilution. The data set is classed as cell-based, S. cerevisiae. The conditions noted are these: after 3 hours of treatment, data not shown. As for the experimental part: FIG. 9. […] Wild-type, yeast Q-less coq3, or respiratory deficient cor1 null mutants were incubated in the presence of 200 μM of LA and D2-LA at different ratios of PUFAs. Serial dilutions (1:5) starting at 0.2 OD/ml were spotted on YPD solid plate medium. A zero-time untreated control is shown on the top left. Growth at 30° C.
FIG. 10. […] Serial dilutions (1:5) starting at 0.2 OD/ml were spotted on YPD solid plate medium. Growth at 30° C.
Wild-type, yeast Q-less coq3, or respiratory deficient cor1 null mutants were incubated in the presence of 200 μM of LA and D2-LA at different ratios of PUFAs, as indicated in FIG. 9. Serial dilutions (1:5) starting at 0.2 OD/ml were spotted on YPD solid plate medium. […] Growth was at 30° C.
Serial dilutions (1:5) starting at 0.2 OD/ml were spotted on YPD solid plate medium. Growth was at 30° C.

Data set [1] relates to coq null mutants (Q-less yeast). The conditions noted are these: for protection in the yeast model: compared with D4-linolenic acid; for viability of coq null mutants after fatty acid treatment: 200 μM fatty acid, plate dilution / colony assay. The protocol: FIG. 3. […] Yeast coq3, coq7 and coq9 null mutants were prepared in the W303 yeast genetic background (WT). Yeast strains were grown in YPD medium (1% Bacto-yeast extract, 2% Bacto-peptone, 2% dextrose) and harvested while in log phase growth (OD600 nm=0.1-1.0). Cells were washed twice with sterile water and resuspended in phosphate buffer (0.10 M sodium phosphate, pH 6.2, 0.2% dextrose) to an OD600 nm=0.2. Samples were removed and 1:5 serial dilutions starting at 0.20 OD/ml were plated on YPD plate medium, to provide a zero time untreated control (shown in top left panel). The designated fatty acids were added to 200 μM final concentration to 20 ml of yeast in phosphate buffer. At 2 h, 4 h, and 16 h samples were removed, 1:5 serial dilutions prepared, and spotted onto YPD plate medium. Pictures were taken after 2 days of growth at 30° C.
FIG. 4. […] The fatty acid sensitive assay was performed as described in FIG. 3, except that 100 μl aliquots were removed at 1, 2, and 4 h and, following dilution, spread onto YPD plates. Pictures were taken after 2 to 2.5 days, and the number of colonies counted. Yeast strains include Wild type (circles), atp2 (triangles), or coq3 (squares); Fatty acid treatments include oleic C18:1 (solid line), linolenic, C18:3, n-3 (dashed line) or 11,11,14,14-D4-linolenic, C18:3, n-3, (dotted line).
Q-less yeast (coq mutants) provide an ideal system to assess in vivo autoxidation of fatty acids. Coenzyme Q (ubiquinone or Q) serves as a small lipophilic antioxidant as well as an electron shuttle in the respiratory chain of the mitochondrial inner membrane. Ten S. cerevisiae genes (COQ1-COQ10) are required for coenzyme Q biosynthesis and function, and the deletion of any results in respiratory deficiency (Tran U C, Clarke C F. Mitochondrion 2007; 7S, 562).
A plate dilution assay can be used to assess PUFA sensitivity. This assay can be performed by spotting serial five-fold dilutions of aliquots onto YPD plate media (FIG. 3). The sensitivity of the different strains can be observed by visual inspection of the density of cells in each spot.

Another data set concerns NASH (MCD diet) rats. The data set can be described thus: NASH induced by methionine and choline deficient diet. It is filed as in vivo, Rattus norvegicus, Wistar. To be noted: daily over three months. The protocol:
(§1) Fifty male heterozygous rats, 45-days-old, from the Rattus norvegicus species and Wistar lineage are kept in polypropylene cages, in groups of five animals, under a 12 h-clear/dark cycle and under controlled temperature conditions. The induction of NASH is carried out through a diet deficient in methionine and choline (MCD) according to known procedures (See Rogers A E, Newberne P M. Alcoholic and nutritional fatty liver and cirrhosis. Am J Pathol. 1973; 73:817-20). […] During the study period, the animals are weighed on a weekly basis and the drugs dose is readjusted as necessary. On the first day of the study, besides determining the animals' weight, their blood is collected through retro-orbital plexus puncture for biochemical analysis: alanine-aminotransferase (ALT) and aspartate-aminotransferase (AST) (colorimetric test, using the Labtest kit). One day after concluding the induction period and compound administration (90 days), animals are sacrificed by decapitation. Once more, each animal's blood is collected for biochemical analysis. Then, laparotomy with total hepatectomy and liver preparation are carried out for lipoperoxidation (LPO) and histological analysis. Liver tissue samples are analyzed using the thiobarbituric-acid reactant substance (TBARS) measurement according to known methods (See Lowry et al. Protein measurement with the folin phenol reagent. J Biol Chem. 1951; 193:265-75) and the results are expressed in nmol of malondialdehyde/mg of protein. Slides with liver fragments are also dyed with hematoxilin-eosine and picrosirius, in order to evaluate the fibrosis level, and with Perls to evaluate the presence of iron stores, having been examined by an only pathologist blinded to the animals' data. The minimum histological criterion for NASH diagnosis is the presence of hepatocellular ballooning-related steatosis, involving zone 3 and lobular inflammatory infiltrate. Mallory corpuscles and sinusoidal fibrosis, involving zone 3 might be present or not. The graduation of both necroinflammatory and fibrosis activity is carried out according to known classifications (See Brunt E M, Janney C G, Di Bisceglie A M, Neuschwander-Tetri B A, Bacon B R. Nonalcoholic steatohepatitis: a proposal for grading and staging the histological lesions. Am J Gastroenterol. 1999; 94:2467-74).

For data set [2], the system named is alcoholic liver disease rats. The data set can be described thus: Alcoholic liver disease and cirrhosis induced by 5% ethanol diet. To be noted: 5% ethanol diet rats, daily over three months. It is filed as in vivo, Rattus norvegicus, Wistar. As for the experimental part: as §1, with “alcoholic liver disease and cirrhosis” for “NASH”, “containing 5% ethanol […].” for “deficient in methionine and choline (MCD) according to known procedures (See Rogers A E, Newberne P M. Alcoholic and nutritional fatty liver and cirrhosis. Am J Pathol. 1973; 73:817-20).”, “days), the” for “days),”, “data.” for “data. The minimum histological criterion for NASH diagnosis is the presence of hepatocellular ballooning-related steatosis, involving zone 3 and lobular inflammatory infiltrate. Mallory corpuscles and sinusoidal fibrosis, involving zone 3 might be present or not. The graduation of both necroinflammatory and fibrosis activity is carried out according to known classifications (See Brunt E M, Janney C G, Di Bisceglie A M, Neuschwander-Tetri B A, Bacon B R. Nonalcoholic steatohepatitis: a proposal for grading and staging the histological lesions. Am J Gastroenterol. 1999; 94:2467-74).”

The test system of the next data set is WT (W303) yeast. The conditions noted are these: 200 μM, 4 h incubation.
The subject of data set [3] is stroke-prone spontaneously hypertensive (SHRSP) rat. In words: SHRSP rat model of hypertension. The data set is classed as in vivo. The conditions noted are these: SHRSP rats, 8 weeks. The text has this: The stroke-prone spontaneously hypertensive (SHRSP) rat model of hypertension, which has been previously described (McIntyre et al., 1997 Hypertension 30:1517; Alexander et al., 1999 Cardiovasc. Res. 43:798; Fennell et al., 2002 Gene Ther. 9:110), can be used for the assessment of a compound's ability to mitigate hypertension.

The test system of another data set is rat hearts. In words: Langendorf isolated heart perfusion model, echo- and electrocardiography. The data set is classed as in vivo. To be noted: rats, 8 weeks supplementation. As for the experimental part:
Test compounds disclosed herein can also be assessed using the Langendorf isolated heart perfusion model. […] Following the treatment period, rat hearts are analyzed by echocardiography for measurement of muscle thickness of the left ventricle, left atrium, right ventricle, and right atrium and electrocardiography for measuring electrical activity. After live evaluation, rats are humanely sacrificed and their hearts isolated and connected to the Langendorf isolated perfusion system (See Jennings et al., Am. Surg. 2004; 70(9), 797-800). Left ventricular pressure is then measured with a left ventricular balloon. Coronary flow is also measured. Cardiac function is further assessed by determining the effect of administration of test compounds on the rate of contraction and relaxation of the heart. To determine whether any observed effects on cardiac function are due to the effect of the test compound on mitochondrial function, mitochondrial activity pre-ischemia and post-ischemia is assessed for each of the treatment groups.

Data set [4] can be described thus: Kinetics of O2 consumption during AMVN-initiated oxidation in chlorobenzene (glass capillary microvolumeter). It is filed as physicochemical. The protocol:
FIG. 7. Kinetics of O2 consumption accompanied the oxidation of 0.71 M LA (plots 1 and 2) and 0.71 M D2-LA (plot 3) in chlorobenzene initiated by 40 mM AMVN at 37° C. Plot 2-0.23 mM HPMC was added to 0.71 M LA.
The kinetics of oxygen consumption during the oxidation of LA and D2-LA was studied with a glass capillary microvolumeter (FIG. 7). The rate of oxidation, ROX, was measured as a slope of [O2] traces. The rate of initiation, RIN, was determined by the inhibitor method with HPMC (“6-hydroxy-2,2,5,7,8-pentamethylbenzochroman”) as a reference inhibitor. RIN was calculated from the induction period of inhibited oxidation, tIND: RIN=2·[HPMC]/tIND. […] When the process was inhibited by 0.23 mM chain-breaking antioxidant HPMC, the duration of the induction period, tIND, was about 48 min, with the RIN value of around 0.16×10^−6 M/s. […] The latter precludes a direct determination of RIN. […] An estimated kinetic isotope effect (“KIE”), from comparison of ROX for LA and D2-LA, was around 6.1×10^−6/0.18×10^−6≈35. A similar KIE was determined during the oxidation of LA and 11,11-d2-LA in Triton X-100 aqueous micelles (data not shown). For comparative purposes, the theoretical KIE is 6.9 at 25° C. See Carpenter, “Determination of Organic Reaction Mechanisms” (John Wiley & Sons, 1984), p. 89.

In data set [5] the test system is coq null mutants (Q-less yeast). The conditions noted are these: cited from earlier work; for sensitivity of Q-less yeast to fatty acid treatment: compared with wild-type parental strain.
For data set [6] the following is noted: cited from earlier work.
Data set [7] has as its system wild-type (W303-1B) yeast cells. To be noted: four hour treatment; cited from earlier work.

The structures appear in SMILES notation.

Method for WT (W303) yeast: Uptake of exogenously supplied fatty acids by yeast. WT (W303) yeast were harvested at log phase and incubated in the presence of 200 μM of the designated fatty acid for either 0 or 4 h.
Wild-type yeast were harvested during log phase growth and incubated in the presence of exogenously added fatty acid (for 0 or 4 h) in the presence of phosphate buffer plus 0.20% dextrose, as described for the fatty acid sensitivity assay. Cells were harvested, washed twice with 10 ml sterile water, and the yeast cell pellets were then processed by alkaline methanolysis as described above. The fatty acids are detected as methylesters (FAMEs) following GC-MS with C17:0 added as an internal standard (FIG. 6).

As to `[2H]C(/C=C\CCCCC)/C=C\CCCCCCCC(=O)O` (stereo not shown) [11,11-D,H-LA, [11^−2 H]-linoleic acid], in the data set with Q-less coq3 yeast, the cell viability result was “no detectable loss in cell viability”.

As for `[2H]C([2H])(/C=C\C/C=C\CC)C/C=C\CCCCCCC(=O)O` [11, 11-D2-linolenic acid, 11,11-Dideutero-cis,cis,cis-octadeca-8,12,15-trienoic acid], the “protection in the yeast model” value in data set [1] is given as “comparable protection”.

Consider `[2H]C([2H])(/C=C\CC)/C=C\CC/C=C\CCCCCCC(=O)O` [14, 14-D2-linolenic acid, 14,14-Dideutero-cis,cis,cis-octadeca-8,12,15-trienoic acid], for which, in [1], the “protection in the yeast model” value is reported as “comparable protection”.

Turning to `[2H]C([2H])(/C=C\CC)/C=C\C([2H])([2H])/C=C\CCCCCCCC(=O)O` [D4-linolenic acid, 11,11,14,14-Tetradeutero-cis,cis,cis-9,12,15-Octadecatrienoic acid], in the data set on NASH (MCD diet) rats, the “amount of MDA in liver samples (TBARS)” value is reported as “reduce the amount of MDA found in liver samples” and the “histological signs of NASH” value is on record as “reverse the histological signs of NASH”. Besides, the “viability of coq null mutants after fatty acid treatment” value in data set [1] is “resistant to PUFA-mediated cell killing”. Also, in [1] (quantitative colony counting (FIG. 4)), the “viability of cells compared with oleic acid treatment” value is listed as “similar”. For the same molecule, in data set [2], the “amount of MDA in liver samples (TBARS)” value is on record as “reduce the amount of MDA found in liver samples” and the “histological signs of fatty liver disease” value is reported as “reverse the histological signs of fatty liver disease”. The “incorporation of fatty acid by yeast” value in the data set with WT (W303) yeast is listed as “avidly incorporate”. The systolic blood pressure entry in [3] is reported as “reduction in systolic blood pressure”. Besides, the “symptoms and markers associated with cardiac disorders” value in the data set with rat hearts is “reduce symptoms and markers associated with cardiac disorders”.

Regarding `CCCCC/C=C\C/C=C\CCCCCCCC(=O)O` [LA, cis,cis-9,12-Octadecadienoic acid, reference compound], the “rate of oxidation, ROX” value in data set [4] (0.71 M in chlorobenzene, 40 mM AMVN, 37° C.) worked out at 6.1e-06 M/s. Moreover, the “length of the kinetic chain, ROX/RIN” value in [4] (for D2-LA assuming RIN comparable to that of LA) was 38±3. Further, in data set [4] (n=5), the oxidizability amounted to 0.0215±0.008 M^−0.5 s^−0.5.

Turning to `CCCCC/C=C\C/C=C\C/C=C\C/C=C\CCCC(=O)O` [arachidonic acid], the “sensitivity of Q-less yeast to fatty acid treatment” value in [5] is listed as “hypersensitive”.

As to `[2H]O[2H]` [heavy water, D2O], the “amount a 70 kg person might drink without serious consequences” value in data set [6] is 4.8 L.

Take `CC/C=C\C/C=C\C/C=C\CCCCCCCC(=O)O` [linolenic acid, cis,cis,cis-9,12,15-Octadecatrienoic acid, reference compound]: in [5] (following a four hour treatment), the “viable Q-less (coq2, coq3, and coq5) yeast mutants” value is “Less than 1%”. For the same molecule, the “viability of coq null mutants after fatty acid treatment” value in [1] is “dramatic loss of viability”. Also, the “incorporation of fatty acid by yeast” value in the data set with WT (W303) yeast was “avidly incorporate”. Moreover, the “wild-type cells remaining viable” value in [7] is on record as 70%.

On to `CCCCCCCC/C=C\CCCCCCCC(=O)O` [oleic acid], for which the “sensitivity of Q-less yeast to fatty acid treatment” value in data set [5] was “behave the same as the wild-type parental strain”.

Source of the values: patent publication US12156860B2, “Disorders implicating PUFA oxidation” (BioJiva LLC, priority 2011, dated 2024).
